Test results from PMC11701928, “Co-crystal structure of Helicobacter pylori biotin protein ligase with biotinyl-5-ATP” (Acta Crystallographica Section F: Structural Biology …, 2025).

Molecular target: T1, HpBPL (Helicobacter pylori, UniProt B5Z8D8)
T1 construct: gene HPG27_1085
T1 sequence (B5Z8D8 1-212): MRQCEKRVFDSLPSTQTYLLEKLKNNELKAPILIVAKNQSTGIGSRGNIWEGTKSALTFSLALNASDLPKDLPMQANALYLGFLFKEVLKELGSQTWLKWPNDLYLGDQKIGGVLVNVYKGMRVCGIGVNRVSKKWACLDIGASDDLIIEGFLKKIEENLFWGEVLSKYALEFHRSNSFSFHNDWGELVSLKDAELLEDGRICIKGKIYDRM
Test: turnover to biotinyl-5-ATP seen in crystal structure
Assay type: biochemical
Settings: 10 min

## O=C(O)CCCC[C@@H]1SC[C@@H]2NC(=O)N[C@@H]21 [biotin]
6 mM biotin with 6 mM ATP and 6 mM MgCl2, 25 °C
  turnover to biotinyl-5-ATP seen in crystal structure: catalytically active and generates biotinyl-5-ATP upon incubation with MgCl2, ATP and biotin

## Nc1ncnc2c1ncn2[C@@H]1O[C@H](COP(=O)(O)OP(=O)(O)OP(=O)(O)O)[C@@H](O)[C@H]1O [ATP]
6 mM ATP with 6 mM biotin and 6 mM MgCl2, 25 °C
  turnover to biotinyl-5-ATP seen in crystal structure: catalytically active and generates biotinyl-5-ATP upon incubation with MgCl2, ATP and biotin
